Like-named read-outs stand apart in the source and are kept apart here.
How the values were obtained:
MCF-7 cells = assay: Estrogen-dependent MCF-7 growth inhibition; format: cell-based, human; conditions: estrogen-dependent MCF-7 cells
[1] = molecular target: T1, recombinant human aromatase (CYP19) (Homo sapiens, UniProt P11511); assay: Fluorescence-based aromatase activity assay; format: biochemical; conditions: for fold increase in aromatase inhibitory potency vs precursor 1e: compared with 3-(pyridin-3-yl)chroman-4-one 1e; for aromatase inhibition (in words): enzymatic assay
T1 sequence (P11511 1-503): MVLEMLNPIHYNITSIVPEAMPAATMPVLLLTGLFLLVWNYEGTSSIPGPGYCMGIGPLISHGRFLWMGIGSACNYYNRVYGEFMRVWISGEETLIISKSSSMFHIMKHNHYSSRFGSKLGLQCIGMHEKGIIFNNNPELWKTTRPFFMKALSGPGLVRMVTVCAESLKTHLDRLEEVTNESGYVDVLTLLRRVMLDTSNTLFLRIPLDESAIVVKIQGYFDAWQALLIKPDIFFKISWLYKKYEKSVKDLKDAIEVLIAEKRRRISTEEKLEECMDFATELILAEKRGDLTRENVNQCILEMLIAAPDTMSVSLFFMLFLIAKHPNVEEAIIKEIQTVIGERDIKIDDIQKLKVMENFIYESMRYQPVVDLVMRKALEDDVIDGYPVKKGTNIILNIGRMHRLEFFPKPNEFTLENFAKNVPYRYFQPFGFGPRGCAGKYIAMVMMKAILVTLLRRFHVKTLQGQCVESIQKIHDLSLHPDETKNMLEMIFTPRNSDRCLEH

[2] = system: non-estrogen dependent MCF-7 cells; assay: Growth inhibition of non-estrogen dependent MCF-7 cells; format: cell-based, human; conditions: MCF-7 cells raised without estrogen
[3] = molecular target: T1, recombinant human aromatase (CYP19); conditions: AI previously synthesized in the authors' lab ref 9; cited from earlier work

Row | Structure (SMILES) | anti-proliferative activity on MCF-7 (in words) (MCF-7 cells) | fold increase in aromatase inhibitory potency vs precursor 1e [1] | aromatase inhibition (in words) [1] | also measured
1 | COc1ccc2c(c1)C(=O)C(c1cccnc1)CO2 (stereo not shown) [3c, 6-methoxy-3-(pyridin-3-yl)chroman-4-one] | inactive | more than 2 fold |  | growth inhibition (in words) [2]: no growth inhibition was observed
2 | O=C1c2ccccc2OCC1c1ccc(-c2ccccc2)cc1 (stereo not shown) [1c, 3-(biphenyl-4-yl)chroman-4-one] | did not show anti-cancer cell activity |  |  | aromatase inhibition (in words) [3]: inactive
3 | O=C1c2c(ccc3ccccc23)OCC1c1ccc(Oc2ccccc2)cc1 (stereo not shown) [3a, 2-(4-Phenoxyphenyl)-2,3-dihydro-1H-benzo[f]chromen-1-one] |  |  | No significant inhibition | 
4 | COc1ccc2c(c1)C(=O)C(c1ccc(Oc3ccccc3)cc1)CO2 (stereo not shown) [3b, 6-Methoxy-3-(4-phenoxyphenyl)chroman-4-one] |  |  | No significant inhibition | 
5 | O=C1c2cc(F)ccc2OCC1c1cccnc1 (stereo not shown) [3e, 6-Fluoro-3-(pyridin-3-yl)chroman-4-one] | inactive | 7 fold |  | fold increase in aromatase inhibitory potency vs parent 1a ([1]; compared with parent molecule 1a): 36 fold
